ChEMBL document CHEMBL6109120, “Discovery of Novel SIK2/3 Inhibitors for the Potential Treatment of MEF2C+ Acute Myeloid Leukemia (AML)” (J Med Chem, 2025)
Values belong to the compound of their own block, whether it stands above or below them.

Columns and labels:
[1] = molecular target: Tyrosine-protein kinase Lck (Homo sapiens, UniProt P06239); assay: Binding affinity to human LCK by KINOMEscan assay
[2] = molecular target: Serine/threonine-protein kinase SIK2 (Homo sapiens, UniProt Q9H0K1); assay: Inhibition of recombinant full length human SIK2 assessed as luminescence signal using AMARAtide/ATP as substrate measured after 120 mins by microplate reader
[3] = molecular target: Serine/threonine-protein kinase SIK3 (Homo sapiens, UniProt Q9Y2K2); assay: Inhibition of recombinant human SIK3 assessed as luminescence signal using AMARAtide/ATP as substrate measured after 120 mins by microplate reader
[4] = molecular target: Serine/threonine-protein kinase SIK1 (Homo sapiens, UniProt P57059); assay: Inhibition of human SIK1 (02 to 131) assessed as luminescence signal using AMARAtide/ATP as substrate measured after 120 mins by microplate reader
[5] = Binding affinity to human ABL by KINOMEscan assay

Sequence of Serine/threonine-protein kinase SIK2 (Q9H0K1 whole entry): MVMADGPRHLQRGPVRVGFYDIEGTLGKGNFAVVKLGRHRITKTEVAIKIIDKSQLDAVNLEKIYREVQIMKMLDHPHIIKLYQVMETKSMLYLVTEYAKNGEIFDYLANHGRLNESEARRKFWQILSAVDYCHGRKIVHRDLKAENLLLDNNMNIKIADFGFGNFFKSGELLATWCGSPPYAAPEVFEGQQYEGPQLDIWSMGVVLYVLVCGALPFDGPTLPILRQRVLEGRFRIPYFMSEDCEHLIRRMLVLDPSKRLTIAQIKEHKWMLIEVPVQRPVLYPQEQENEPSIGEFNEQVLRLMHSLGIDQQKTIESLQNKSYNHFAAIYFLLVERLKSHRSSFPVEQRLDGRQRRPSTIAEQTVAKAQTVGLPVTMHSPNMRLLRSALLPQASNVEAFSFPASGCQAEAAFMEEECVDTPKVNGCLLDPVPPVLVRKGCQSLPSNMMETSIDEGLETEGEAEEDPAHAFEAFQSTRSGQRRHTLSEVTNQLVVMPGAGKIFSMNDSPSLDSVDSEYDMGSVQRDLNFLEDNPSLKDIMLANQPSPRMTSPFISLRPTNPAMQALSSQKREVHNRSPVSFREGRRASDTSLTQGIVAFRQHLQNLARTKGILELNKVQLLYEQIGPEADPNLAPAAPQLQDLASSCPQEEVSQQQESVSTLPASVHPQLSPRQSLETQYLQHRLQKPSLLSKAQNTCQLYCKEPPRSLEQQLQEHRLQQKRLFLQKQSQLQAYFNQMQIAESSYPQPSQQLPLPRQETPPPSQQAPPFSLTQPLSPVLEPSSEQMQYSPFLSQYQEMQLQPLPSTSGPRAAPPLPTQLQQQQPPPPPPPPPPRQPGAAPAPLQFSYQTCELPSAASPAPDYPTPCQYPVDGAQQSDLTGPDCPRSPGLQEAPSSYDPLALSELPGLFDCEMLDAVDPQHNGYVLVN
Sequence of Tyrosine-protein kinase Lck (P06239 whole entry): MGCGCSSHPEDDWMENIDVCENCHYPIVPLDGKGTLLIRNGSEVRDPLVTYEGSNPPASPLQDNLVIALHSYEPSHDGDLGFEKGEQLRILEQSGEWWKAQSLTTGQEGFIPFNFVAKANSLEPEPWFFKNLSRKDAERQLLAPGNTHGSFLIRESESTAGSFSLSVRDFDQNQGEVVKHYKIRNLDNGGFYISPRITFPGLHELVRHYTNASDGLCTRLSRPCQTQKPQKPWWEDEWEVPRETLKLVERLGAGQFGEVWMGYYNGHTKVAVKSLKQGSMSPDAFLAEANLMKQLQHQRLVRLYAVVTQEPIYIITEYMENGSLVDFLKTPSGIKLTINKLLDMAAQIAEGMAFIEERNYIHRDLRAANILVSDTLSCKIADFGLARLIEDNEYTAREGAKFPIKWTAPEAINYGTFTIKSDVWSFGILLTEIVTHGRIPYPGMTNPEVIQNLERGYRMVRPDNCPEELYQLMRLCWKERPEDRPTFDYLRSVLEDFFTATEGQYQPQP
Sequence of Serine/threonine-protein kinase SIK1 (P57059 whole entry): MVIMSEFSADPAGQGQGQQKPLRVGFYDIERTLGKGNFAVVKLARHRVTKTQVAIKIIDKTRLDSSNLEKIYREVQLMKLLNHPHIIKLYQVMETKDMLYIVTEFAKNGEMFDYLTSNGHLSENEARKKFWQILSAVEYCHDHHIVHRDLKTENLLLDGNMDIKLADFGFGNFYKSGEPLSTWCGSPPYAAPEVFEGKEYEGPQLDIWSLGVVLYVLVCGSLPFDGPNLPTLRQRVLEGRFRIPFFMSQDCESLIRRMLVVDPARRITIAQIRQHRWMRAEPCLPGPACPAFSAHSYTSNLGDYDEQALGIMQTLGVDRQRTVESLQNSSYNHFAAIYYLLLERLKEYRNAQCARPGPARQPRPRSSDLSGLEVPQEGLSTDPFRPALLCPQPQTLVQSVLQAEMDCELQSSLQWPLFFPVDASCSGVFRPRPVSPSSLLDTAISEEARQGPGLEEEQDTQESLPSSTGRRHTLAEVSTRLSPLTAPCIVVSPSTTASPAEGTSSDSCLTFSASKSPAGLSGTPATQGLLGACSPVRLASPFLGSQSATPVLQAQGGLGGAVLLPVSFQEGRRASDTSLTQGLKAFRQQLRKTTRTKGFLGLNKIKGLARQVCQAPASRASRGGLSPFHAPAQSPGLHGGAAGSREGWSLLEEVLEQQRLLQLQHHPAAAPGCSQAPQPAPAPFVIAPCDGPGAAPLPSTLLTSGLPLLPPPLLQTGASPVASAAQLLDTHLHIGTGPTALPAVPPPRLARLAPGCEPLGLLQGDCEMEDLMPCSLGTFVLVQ
Sequence of Serine/threonine-protein kinase SIK3 (Q9Y2K2 whole entry): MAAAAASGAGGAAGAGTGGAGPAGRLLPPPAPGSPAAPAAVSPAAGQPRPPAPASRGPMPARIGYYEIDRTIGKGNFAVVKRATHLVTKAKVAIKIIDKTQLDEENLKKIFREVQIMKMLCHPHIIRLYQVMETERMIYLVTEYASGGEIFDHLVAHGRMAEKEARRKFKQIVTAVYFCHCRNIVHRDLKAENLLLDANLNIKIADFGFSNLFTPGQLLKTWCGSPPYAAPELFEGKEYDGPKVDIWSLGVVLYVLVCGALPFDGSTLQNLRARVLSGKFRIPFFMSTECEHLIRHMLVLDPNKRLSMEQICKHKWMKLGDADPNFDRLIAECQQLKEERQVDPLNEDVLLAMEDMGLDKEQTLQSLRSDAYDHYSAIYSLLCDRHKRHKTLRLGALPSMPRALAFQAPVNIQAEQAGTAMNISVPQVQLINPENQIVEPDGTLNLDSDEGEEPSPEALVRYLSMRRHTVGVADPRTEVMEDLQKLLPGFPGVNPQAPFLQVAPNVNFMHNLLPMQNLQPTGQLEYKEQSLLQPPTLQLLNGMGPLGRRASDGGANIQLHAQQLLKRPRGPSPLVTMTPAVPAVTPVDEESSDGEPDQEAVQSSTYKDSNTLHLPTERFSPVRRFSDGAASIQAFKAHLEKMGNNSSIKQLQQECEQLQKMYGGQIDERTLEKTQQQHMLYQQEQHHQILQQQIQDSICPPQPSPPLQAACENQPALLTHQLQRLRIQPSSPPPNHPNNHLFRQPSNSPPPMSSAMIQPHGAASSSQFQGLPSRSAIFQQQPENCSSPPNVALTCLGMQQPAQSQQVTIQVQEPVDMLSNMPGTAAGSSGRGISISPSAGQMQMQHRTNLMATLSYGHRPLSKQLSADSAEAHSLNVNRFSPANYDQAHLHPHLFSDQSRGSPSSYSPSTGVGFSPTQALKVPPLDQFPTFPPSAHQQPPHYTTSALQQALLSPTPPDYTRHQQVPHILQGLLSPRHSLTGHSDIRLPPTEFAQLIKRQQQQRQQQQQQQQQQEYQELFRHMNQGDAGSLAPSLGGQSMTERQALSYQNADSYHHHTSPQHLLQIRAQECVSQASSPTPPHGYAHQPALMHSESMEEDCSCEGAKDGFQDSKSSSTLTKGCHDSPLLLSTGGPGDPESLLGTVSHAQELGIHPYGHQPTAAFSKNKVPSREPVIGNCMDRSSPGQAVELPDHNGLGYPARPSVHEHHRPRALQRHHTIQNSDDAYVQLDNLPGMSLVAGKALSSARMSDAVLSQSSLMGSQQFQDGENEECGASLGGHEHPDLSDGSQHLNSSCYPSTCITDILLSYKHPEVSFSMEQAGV

- IC50 [1]: 2.7 nM
Structure (SMILES): Cc1cc(-c2cc(O)ccc2Cl)cc2nnc(Nc3ccc(OCCN4CCCC4)cc3)nc12

- IC50 [2]: 4.9 nM
- IC50 [3]: 5.7 nM
- IC50 [4]: 118 nM
Structure (SMILES): COc1cc(-c2cc(-c3cnn(C4CCOCC4)c3)cnc2N)cc2c1C(=O)N(CC#N)CC2

- IC50 [2]: 39 nM
Structure (SMILES): COc1cc(-c2cc(-c3cnn(S(C)(=O)=O)c3)cnc2N)cc2c1C(=O)N(CC(F)(F)F)CC2

- IC50 [5]: 26.8 nM
Structure (SMILES): CNC(=O)c1cc(Oc2ccc(NC(=O)Nc3cc(C(C)(C)C)nn3-c3ccc4ncccc4c3)c(F)c2)ccn1 [REBASTINIB]
